Like-named read-outs stand apart in the source and are kept apart here.
What was measured:
[1] = CC50 reported alongside the CHIKV antiviral assay (cytotoxicity); type: cell-based; conditions: cell line not given
Source text: (§1) The compounds below in Table 1 were synthesized with methods identical or analogous to those described herein. The requisite starting materials were commercially available, described in the literature, or readily synthesized by one skilled in the art of organic synthesis.

Chikungunya virus = test: Evaluation of antiviral activity against Chikungunya virus (EC90); type: cell-based
Source text: EC90 refers to the concentration of the compound that is required for 90% antagonism or inhibition of CHIKV. EC90 also refers to the concentration of a substance that is required for 90% antagonism or inhibition of CHIKV in vivo.
as §1

[2] = Chikungunya virus, read-out: EC90 (μM) CHIKV, concentration required for 90% inhibition of CHIKV
[3] = read-out: EC90 (μM) CHIKV, concentration required for 90% inhibition of CHIKV

Question: For `CCn1nc(C(=O)Nc2ccc3c(c2)CCCCC3)cc1C` [Compound 26, 1-ethyl-5-methyl-N-(6,7,8,9-tetrahydro-5H-benzo[7]annulen-2-yl)-1H-pyrazole-3-carboxamide], which CC50 [1] is on record?
Answer: > 30 µM

Question: What about the EC90 (Chikungunya virus; [2]) of the same molecule?
Answer: > 30 µM

Question: What does the source list for `COc1cc2c(cc1NC(=O)c1ccc(Cl)cc1I)CCCCC2` [Compound 75, 4-Chloro-2-iodo-N-(3-methoxy-6,7,8,9-tetrahydro-5H-benzo[7]annulen-2-yl)benzamide]?
Answer: CC50 [1]: > 30 µM; EC90 (Chikungunya virus; [2]): 6.1 µM

Question: Which results are given for `COc1cc2c(cc1NC(=O)c1ccc(C(C)(C)C)c(F)c1)CCCCC2` [Compound 53, 4-(tert-Butyl)-3-fluoro-N-(3-methoxy-6,7,8,9-tetrahydro-5H-benzo[7]annulen-2-yl)benzamide]?
Answer: CC50 [1]: > 30 µM; EC90 (Chikungunya virus; [2]): 2.24 µM

Question: Which CC50 [1] does the source give for `CCOc1cc2c(cc1NC(=O)c1ccc(C(C)(C)C)cc1)CCCCC2` [Compound 84, 4-(tert-Butyl)-N-(3-ethoxy-6,7,8,9-tetrahydro-5H-benzo[7]annulen-2-yl)benzamide] here?
Answer: 10 µM

Question: And the EC90 (Chikungunya virus; [2])?
Answer: 5.19 µM

Question: Which results are given for `COc1cc2c(cc1NC(=O)c1ccc(C(C)(C)CO)cc1)CCCCC2` [Compound 47]?
Answer: CC50 [1]: 96.3 µM; EC90 (Chikungunya virus; [2]): 7.1 µM

Question: For `COc1cc2c(cc1NC(=O)c1ccccc1)CCCCC2` [Compound 83, N-(3-methoxy-6,7,8,9-tetrahydro-5H-benzo[7]annulen-2-yl)benzamide], which CC50 [1] is on record?
Answer: > 30 µM

Question: What about the EC90 (Chikungunya virus; [2]) of the same molecule?
Answer: > 10 µM

Question: With `COc1cc2c(cc1NC(=O)c1cnc(C)s1)CCCCC2` [Compound 33, N-(3-methoxy-6,7,8,9-tetrahydro-5H-benzo[7]annulen-2-yl)-2-methylthiazole-5-carboxamide] as the molecule, how does the CC50 [1] read?
Answer: > 30 µM

Question: What about the EC90 (Chikungunya virus; [2]) of the same molecule?
Answer: > 30 µM

Question: Which CC50 [1] does the source give for `CC(C)(C)c1ccc(C(=O)Nc2cc3c(cc2C#N)CCCCC3)cc1` [Compound 12, 4-(tert-Butyl)-N-(3-cyano-6,7,8,9-tetrahydro-5H-benzo[7]annulen-2-yl)benzamide] here?
Answer: 17 µM

Question: What about the EC90 (Chikungunya virus; [2]) of the same molecule?
Answer: 4.4 µM

Question: With `COc1cc2c(cc1NC(=O)CCc1ccc(C(C)(C)C)cc1)CCCCC2` [Compound 68, 3-(4-(tert-Butyl)phenyl)-N-(3-methoxy-6,7,8,9-tetrahydro-5H-benzo[7]annulen-2-yl)propanamide] as the molecule, how does the CC50 [1] read?
Answer: > 30 µM

Question: What about the EC90 (Chikungunya virus; [2]) of the same molecule?
Answer: > 10 µM

Question: With `CC(C)(C)c1ccc(C(=O)Nc2cc3c(cc2CO)CCCCC3)cc1` [Compound 29] as the molecule, how does the CC50 [1] read?
Answer: > 30 µM

Question: And the EC90 (Chikungunya virus; [2])?
Answer: > 10 µM

Question: With `CCCc1ccc(C(=O)Nc2cc3c(cc2OC)CCCCC3)cc1` [Compound 57, N-(3-methoxy-6,7,8,9-tetrahydro-5H-benzo[7]annulen-2-yl)-4-propylbenzamide] as the molecule, how does the CC50 [1] read?
Answer: > 30 µM

Question: And the EC90 (Chikungunya virus; [2])?
Answer: > 10 µM

Question: With `CCn1cc(C(=O)Nc2cc3c(cc2OC)CCCCC3)c(C(F)(F)F)n1` [Compound 45, 1-Ethyl-N-(3-methoxy-6,7,8,9-tetrahydro-5H-benzo[7]annulen-2-yl)-3-(trifluoromethyl)-1H-pyrazole-4-carboxamide] as the molecule, how does the CC50 [1] read?
Answer: 34.5 µM

Question: What about the EC90 (Chikungunya virus; [2]) of the same molecule?
Answer: 2.95 µM

Question: With `COc1cc2c(cc1NC(=O)c1ccc(OC(F)(F)F)cc1)CCCCC2` [Compound 72, N-(3-Methoxy-6,7,8,9-tetrahydro-5H-benzo[7]annulen-2-yl)-4-(trifluoromethoxy)benzamide] as the molecule, how does the CC50 [1] read?
Answer: > 30 µM

Question: What about the EC90 (Chikungunya virus; [2]) of the same molecule?
Answer: 3.3 µM

Question: With `COc1cc2c(cc1NC(=O)c1cccc(C(C)(C)C)c1)CCCCC2` [Compound 41, 3-(tert-Butyl)-N-(3-methoxy-6,7,8,9-tetrahydro-5H-benzo[7]annulen-2-yl)benzamide] as the molecule, how does the CC50 [1] read?
Answer: > 30 µM

Question: What about the EC90 (Chikungunya virus; [2]) of the same molecule?
Answer: 34.1 µM

Question: With “3,5-Difluoro-N-(3-methoxy-6,7,8,9-tetrahydro-5H-benzo[7]annulen-2-yl)picolinamide [Compound 77]” as the molecule, how does the CC50 [1] read?
Answer: > 30 µM

Question: And the EC90 (Chikungunya virus; concentration required for 90% inhibition of CHIKV, read-out: EC90 (μM) CHIKV)?
Answer: 2.9 µM

Question: With `COc1cc2c(cc1NC(=O)c1cnc(C)cn1)CCCCC2` [Compound 39, N-(3-Methoxy-6,7,8,9-tetrahydro-5H-benzo[7]annulen-2-yl)-5-methylpyrazine-2-carboxamide] as the molecule, how does the CC50 [1] read?
Answer: > 30 µM

Question: What about the EC90 (Chikungunya virus; [3]) of the same molecule?
Answer: > 30 µM

Question: Which CC50 [1] does the source give for `COc1cc2c(cc1NC(=O)c1cnc(C)cn1)CCCCC2` [Compound 81, N-(3-methoxy-6,7,8,9-tetrahydro-5H-benzo[7]annulen-2-yl)-5-methylpyrazine-2-carboxamide] here?
Answer: > 30 µM

Question: What about the EC90 (Chikungunya virus; [3]) of the same molecule?
Answer: > 10 µM

Question: What does the source list for `COc1cc2c(cc1NC(=O)Cc1ccc(C(C)(C)C)cc1)CCCCC2` [Compound 54]?
Answer: CC50 [1]: > 30 µM; EC90 (Chikungunya virus; [2]): 42.9 µM

Question: Which CC50 [1] does the source give for `CCn1nc(C(=O)Nc2cc3c(cc2OC)CCCCC3)cc1C` [Compound 31, 1-Ethyl-N-(3-methoxy-6,7,8,9-tetrahydro-5H-benzo[7]annulen-2-yl)-5-methyl-1H-pyrazole-3-carboxamide] here?
Answer: > 30 µM

Question: And the EC90 (Chikungunya virus; [2])?
Answer: 0.79 µM

Question: With `COc1cc2c(cc1NC(=O)c1ccc(C(F)(F)F)cc1)CCCCC2` [Compound 74, N-(3-methoxy-6,7,8,9-tetrahydro-5H-benzo[7]annulen-2-yl)-4-(trifluoromethyl)benzamide] as the molecule, how does the CC50 [1] read?
Answer: > 30 µM

Question: What about the EC90 (Chikungunya virus; [2]) of the same molecule?
Answer: 7.4 µM

Question: Which CC50 [1] does the source give for `COc1cc2c(cc1NC(=O)c1ccc(C3(O)CCC3)cc1)CCCCC2` [Compound 66, 4-(1-Hydroxycyclobutyl)-N-(3-methoxy-6,7,8,9-tetrahydro-5H-benzo[7]annulen-2-yl)benzamide] here?
Answer: > 30 µM

Question: And the EC90 (Chikungunya virus; [2])?
Answer: > 10 µM

Question: For `COc1cc2c(cc1NC(=O)c1ccc(C(C)(C)C)cc1)CCCC(=O)N2C(C)C` [Compound 63, 4-(tert-butyl)-N-(1-isopropyl-8-methoxy-2-oxo-2,3,4,5-tetrahydro-1H-benzo[b]azepin-7-yl)benzamide], which CC50 [1] is on record?
Answer: > 30 µM

Question: What about the EC90 (Chikungunya virus; [2]) of the same molecule?
Answer: > 30 µM

Question: For `COc1cc2c(cc1NC(=O)c1ccc(C(C)(C)C)o1)CCCCC2` [Compound 37, 5-(tert-Butyl)-N-(3-methoxy-6,7,8,9-tetrahydro-5H-benzo[7]annulen-2-yl)furan-2-carboxamide], which CC50 [1] is on record?
Answer: > 30 µM

Question: And the EC90 (Chikungunya virus; [2])?
Answer: 23.2 µM

Question: Which results are given for `COc1cc2c(cc1N1Cc3cc(C(C)(C)C)ccc3C1=O)CCCCC2` [Compound 60, 5-(tert-Butyl)-2-(3-methoxy-6,7,8,9-tetrahydro-5H-benzo[7]annulen-2-yl)isoindolin-1-one]?
Answer: CC50 [1]: > 30 µM; EC90 (Chikungunya virus; [2]): > 10 µM

Question: Which CC50 [1] does the source give for `CCCOc1cc2c(cc1NC(=O)c1ccc(C(C)(C)C)cc1)CCCCC2` [Compound 86, 4-(tert-Butyl)-N-(3-propoxy-6,7,8,9-tetrahydro-5H-benzo[7]annulen-2-yl)benzamide] here?
Answer: > 30 µM

Question: And the EC90 (Chikungunya virus; [2])?
Answer: 7 µM

Question: What does the source list for `COc1cc2c(cc1NC(=O)c1cnc(C(C)(C)C)nc1)CCCCC2` [Compound 49, 2-(tert-Butyl)-N-(3-methoxy-6,7,8,9-tetrahydro-5H-benzo[7]annulen-2-yl)pyrimidine-5-carboxamide]?
Answer: CC50 [1]: 37.6 µM; EC90 (Chikungunya virus; [2]): 2.99 µM

Question: With `COc1cc2c(cc1NC(=O)c1ccc(C(C)(C)C)s1)CCCCC2` [Compound 38, 5-(tert-Butyl)-N-(3-methoxy-6,7,8,9-tetrahydro-5H-benzo[7]annulen-2-yl)thiophene-2-carboxamide] as the molecule, how does the CC50 [1] read?
Answer: 32 µM

Question: What about the EC90 (Chikungunya virus; [2]) of the same molecule?
Answer: 3.1 µM

Question: For `COc1cc2c(cc1NC(=O)c1ccccc1C(C)(C)C)CCCCC2` [Compound 43, 2-(tert-Butyl)-N-(3-methoxy-6,7,8,9-tetrahydro-5H-benzo[7]annulen-2-yl)benzamide], which CC50 [1] is on record?
Answer: > 30 µM

Question: And the EC90 (Chikungunya virus; [2])?
Answer: 3.2 µM

Question: With `COc1cc2c(cc1NC(=O)c1ccc(C(C)(C)C)cc1)CCCCC2` [Compound 3, 4-(tert-Butyl)-N-(3-methoxy-6,7,8,9-tetrahydro-5H-benzo[7]annulen-2-yl)benzamide] as the molecule, how does the CC50 [1] read?
Answer: > 30 µM
